Where two headings read alike, the source gives them in different places.
Key:
[1] = tested on: catechol dioxygenase (CatA); experiment: Substrate specificity of catechol dioxygenase in cell extract; type: biochemical, Amycolatopsis species ATCC 39116; settings: for Specific activity: 20 μM substrate, MA formation at 260 nm
Experimental: The cells were harvested by centrifugation, washed in 60 mM Tris-HCl buffer (pH 8.2), and disrupted in pre-packed lysis tubes (0.1 mm silica spheres, Lysing Matrix B, MP Biomedicals, Heidelberg, Germany), using three intervals of disruption in a ribolyzer (Precellys-24, Peq Lab, Hannover, Germany, 3×30 s, 6 m s^−1) with […] on ice in between. Removal of cell debris and protein quantification was performed as previously described (Becker et al., 2009. Appl. Environ. Microbiol. 75, 7866-9). […] The reaction was monitored on-line via the change in absorbance at 260 nm, reflecting the accumulation of MA (c=16,800 M^−1 cm^−1) (Jimenez et al., 2014. Microbiol. 16, 1767-78). […] Controls without cell extract and without substrate were included.
Subsequently, GC-MS analysis of pure MA and of lyophilized culture supernatant from a culture on o-cresol was conducted. […] It was now interesting to see, how this product was actually derived.

[2] = tested on: Amycolatopsis sp. ATCC 39116; experiment: Utilization of aromatics as sole source of carbon (growth, OD600); type: cell-based; settings: 2 mM substrate as sole source of carbon in mineral salt medium; OD600 after 40 hours
Experimental: For genetic engineering work, E. coli strains were grown in liquid Luria-Bertani (LB) medium or on solid LB medium, which additionally contained 20 g L^−1 agar (Becton Dickinson, Heidelberg, Germany). For conjugation, A. species ATCC 39116 was grown in liquid GYM medium, containing per liter: 4 g glucose, 4 g yeast extract (Becton Dickinson), and 10 g malt extract (Becton Dickinson). For sporulation and for cloning purposes, solid GYM medium, additionally containing 20 g L^−1 agar (Becton Dickinson), was used. For the pre-culture and the main culture in growth and production studies, a mineral medium (pH 7.2) was used, which contained per liter: 4.5 g Na2HPO4*7H2O, 3.0 g (NH4)2SO4, 1.0 g KH2PO4, 200 mg NaCl, 200 mg MgSO4.7H2O, 50 mg CaCl2.2H2O, 2 mg ZnSO4.7H2O, 1.2 mg MnCl2.4H2O, 0.4 mg CoCl2.6H2O, 0.2 mg NaMoO4.2H2O, 0.2 mg CuSO4.5H2O. […] For direct MA production from pre-treated lignin, appropriate amounts of the obtained hydrolysate (see below) were added. For plasmid maintenance, kanamycin (50 μg mL^−1) or apramycin (50 μg mL^−1) were added, respectively, when needed. In addition, 5-Bromo-4-chloro-1H-indol-3-yl β-D-gluco-pyranosiduronic acid (X-Gluc) was added to selection agar plates (40 μg mL^−1) for blue white screening.
(§1) Amycolatopsis was cultivated in baffled shake flasks, filled to 10% with liquid medium. Single colonies from agar plates, incubated for 24 h at 37° C., were used as inoculum for the first pre-culture. From there, cells were harvested during the exponential growth by centrifugation (5 min, 8800 xg, and 37° C.), and used afterwards as inoculum for the main culture. All shake flask cultivations were conducted in triplicate at 37° C. and 230 rpm on an orbital shaker (Multitron, Infors AG, Bottmingen, Switzerland).
The wildtype was cultivated in minimal medium on a range of aromatics, reflecting a spectrum of potential lignin-derivable raw materials.

[3] = target: catechol-1,2-dioxygenase (CatA) (Corynebacterium glutamicum, UniProt Q8NN11); experiment: Catechol-1,2-dioxygenase (CatA) activity and kinetics in crude cell extracts; type: biochemical
Experimental: Crude cell extracts were prepared from exponentially growing cells by mechanical cell disruption. Cell harvest was carried out as previously described (Buschke et al., 2011. Biotechnol. J. 6, 306-17). Aliquots of 1 mL cell suspension were transferred into FastPrep-24 vials (MP Biomedicals, Illkirch-Graffenstaden, France), containing silica beads (Ø 0.1 mm). Cell disruption was carried out in 2×30 sec cycles at 5,000 rpm (Precellys-24, Peqlab, Hannover, Germany), including a 5 minute cooling pause on ice. The extract was also chilled on ice after the disruption. Removal of cell debris and protein quantification was performed as previously described (Becker et al., 2009. Appl. Environ. Microbiol. 75, 7866-9). […] The formation of MA (c=[…]) was monitored via the change in absorbance at 260 nm (Guzik et al., 2013. Int. J. Gen. Mol. Microbiol. 103, 1297-1307). […] The kinetic parameters of the enzyme were obtained by fitting the experimental data to the Michaelis-Menten type kinetic equation (OriginLab, Northhampton, Mass., USA). The protein content in the crude cell extract was quantified, using bovine serum albumin as standard (Pierce BCA Protein Assay Kit, Thermo Fisher Scientific).

[4] = tested on: Corynebacterium glutamicum LIMA-1; type: cell-based; settings: glucose as growth substrate; 24 hours
Experimental: C. glutamicum was grown at 1 mL-scale in a micro bioreactor (BioLector I, m2plabs, Baesweiler, Germany), using 48-well flower plates. […] All cultures were conducted as biological triplicate.
A set of growth experiments was conducted to study potential inhibitory effects of the compounds involved on growth of the producing strains.

[5] = tested on: Corynebacterium glutamicum LIMA-1; experiment: Kinetics and stoichiometry of MA production from aromatics, batch shake flask, LIMA-1; type: cell-based
Experimental: (§2) C. glutamicum was grown in baffled shake flasks with 10% filling volume at 30° C. and 230 rpm on an orbital shaker (Multitron, Infors AG, Bottmingen, Switzerland, 5 cm shaking diameter). The cultivation procedure involved one pre-culture in complex medium (37 g L^−1 BHI) followed by another pre-cultivation and then by the main cultivation, both in minimal medium (Kind et al., 2013. Metab. Eng. 15, 184-95.), which contained the following salts and vitamins per liter: NaCl, 0.055 g CaCl2.H2O, 0.2 g MgSO4.7H2O, 15 g (NH4)2SO4, 24.98 g K2HPO4, 7.7 g KH2PO4, 20 mg FeSO4.7 H2O, 0.5 mg biotin, 1 mg thiamine.HCl, 30 mg 3,4-dihydroxybenzoic acid and 10 mL of a 100× trace element solution (Vallino and Stephanopoulos., 1993. Biotechnol. Bioeng. 41, 633-646). […] The different medium ingredients were combined at room temperature freshly before use. The pH was kept constant at 7.0±0.2 by manual addition of 2 M NaOH. All cultures were conducted as biological triplicate.
(§3) A diode array detector was used for detection of MA (260 nm) and the aromatics (210 nm). The quantification of glucose was carried out by isocratic HPLC (Agilent 1260 Infinity Series, Waldbronn, Germany). The separation was conducted on an Aminex HPX-87H column (300×7.8 mm; Bio-Rad, Munich, Germany) at 55° C. As mobile phase, 3.5 mM H2SO4 was used at a flow rate of 0.8 mL min^−1. The refraction index was used for detection. The concentration of cell dry mass (CDM) was calculated from the measured optical density (OD660) using a correlation factor of CDM (g/L)=0.32×OD660 (Rohles et al., 2016. Microb. Cell Fact. 15, 154). The exact monitoring of the cell concentration during the intracellular metabolite sampling and the above correlation allowed to relate the obtained metabolite levels to the CDM (μmol gCDM^−1). The correlation between the cytoplasmic volume and the CDM (1.95 mL gCDM^−1) was used to express intracellular concentrations in mM (Gutmann et al., 1992. Biochim. Biophys. Acta. 1112, 115-23).

[6] = tested on: Corynebacterium glutamicum LIMA-2; experiment: Kinetics and stoichiometry of MA production from catechol, batch shake flask, LIMA-2; type: cell-based; settings: only 10 mM catechol
Experimental: as §2, §3

[7] = tested on: Amycolatopsis sp. ATCC 39116; experiment: Growth of wildtype on guaiacol as sole source of carbon; type: cell-based
Experimental: as §1
The cell concentration was determined in duplicate as optical density at 600 nm (OD600). The cell dry mass (CDM) was determined gravimetrically in triplicate. In short, 20 mL culture broth was filtered (Whatman cellulose filter, Grade 3, GE-Healthcare Life Sciences, Little Chalfont, UK), washed three times, and dried to constant weight (HB43-S, Mettler-Toledo, Columbus, Ohio, UA). The correlation factor was CDM [g L^−1]=0.45×OD600.
The capability to use guaiacol was found most relevant, given the huge importance of the aromatic as the dominant building block of softwood lignin, and was therefore studied now in more detail. The wildtype was found robust and tolerated elevated levels of guaiacol. Concentrations up 25 mM were utilized (FIG. 25). […] On a quantitative basis, MA reached a level of 0.3 mM, which represented about 5% of the initially added guaiacol. […]

[8] = LIMA-1, initial 20 mM benzoate, 10 mM catechol, 5 mM phenol, glucose added
[9] = column LIMA-1, 10 mM catechol plus 2 mM benzoate as inducer

catechol-1,2-dioxygenase (CatA), sequence (Q8NN11 entry or part of it): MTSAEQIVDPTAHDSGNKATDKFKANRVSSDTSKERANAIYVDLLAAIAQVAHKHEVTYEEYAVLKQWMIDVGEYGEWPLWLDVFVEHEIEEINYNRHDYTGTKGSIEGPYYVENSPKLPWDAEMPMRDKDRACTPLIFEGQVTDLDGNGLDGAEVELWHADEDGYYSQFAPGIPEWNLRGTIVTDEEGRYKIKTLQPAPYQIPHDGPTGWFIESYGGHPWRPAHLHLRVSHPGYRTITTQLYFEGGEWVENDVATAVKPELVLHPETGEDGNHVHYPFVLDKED

Cc1cccc(O)c1O [3-Methyl catechol]
Specific activity [1]: 470 ± 9 mU mg^−1
activity relative to that found for catechol ([1]; catechol replaced by equimolar substrate): about 70%

Cc1ccc(O)c(O)c1 [4-Methyl catechol]
accepted as substrate by the enzyme [1]: accepted
Specific activity [1]: 380 ± 5 mU mg^−1

O=C(O)c1ccccc1 [Benzoic acid]
Growth [2]: +++ (OD > 1)
CatA activity of cells cultivated on the aromatic ([3]; LIMA-1 crude extract): 490 mU mg^−1
fold higher CatA activity versus culture only on glucose ([3]; LIMA-1 crude extract): 16 fold
level up to which the mutant grew (highest concentrations tested) [4]: ≤ 80 mM
YMA/Aro, MA yield [5]: 1.00 ± 0.02 mol mol^−1
YX/Glc, biomass yield [5]: 0.46 ± 0.01 g/g
qGlc, specific glucose uptake rate [5]: 0.5 ± 0.0 mmol/g/h
qMA, specific MA production rate [5]: 3.3 ± 0.1 mmol/g/h

Oc1ccccc1O [Catechol]
Growth [2]: ++ (1 > OD > 0.5)
Specific activity [1]: 640 ± 19 mU mg^−1
Specific activity ([1]; listed as catechol): 640 mU mg^−1
Km ([3]; read-out: KM-value for catechol, crude extract of benzoate-grown cells, Michaelis-Menten fit): 2300 nM
YMA/Aro, MA yield [5, 8]: 0.99 ± 0.02 mol mol^−1
YX/Glc, biomass yield [5, 8]: 0.38 ± 0.01 g/g
qGlc, specific glucose uptake rate [5, 8]: 0.3 ± 0.0 mmol/g/h
qMA, specific MA production rate [5, 8]: 0.2 ± 0.0 mmol/g/h
YMA/Aro, MA yield ([5]; LIMA-1, initial 20 mM benzoate, 10 mM catechol, 5 mM phenol, glucose added, listed as catechol): 1.00±0.01 mol mol^−1
qGlc, specific glucose uptake rate [5, 9]: 0.7 ± 0.0 mmol/g/h
qMA, specific MA production rate [5, 9]: 5.2 ± 0.4 mmol/g/h
YMA/Aro, MA yield [6]: 1.00 ± 0.01 mol mol^−1
YX/Glc, biomass yield [6]: 0.40 ± 0.02 g/g
qGlc, specific glucose uptake rate [6]: 0.4 ± 0.0 mmol/g/h
qMA, specific MA production rate [6]: 3.5 ± 0.1 mmol/g/h

O=C(O)/C=C\C=C/C(=O)O [Cis,cis-muconic acid, (2Z,4Z)-2,4-Hexadienedioate]
Growth [2]: +++ (OD > 1)

COc1ccccc1O [Guaiacol]
Growth [2]: ++ (1 > OD > 0.5)
specific growth rate ([7]; guaiacol as sole carbon source): 0.30 h⁻¹
concentrations utilized (tolerated) up to ([7]; guaiacol as sole source of carbon, 24 hours): ≤ 25 mM

Oc1ccccc1 [Phenol]
Growth [2]: ++ (1 > OD > 0.5)
YMA/Aro, MA yield [5]: 0.95 ± 0.09 mol mol^−1
YX/Glc, biomass yield [5]: 0.48 ± 0.01 g/g
qGlc, specific glucose uptake rate [5]: 0.6 ± 0.0 mmol/g/h
qMA, specific MA production rate [5]: 0.1 ± 0.0 mmol/g/h

Cc1ccccc1 [Toluene]
Growth [2]: + (0.5 > OD > 0.25)

O=C(O)/C=C/c1ccc(O)cc1 [p-Coumaric acid]
Growth [2]: +++ (OD > 1)
